Laboratory results taken from article PMC7926793, “Synthesis and Biological Evaluation of 1-(Diarylmethyl)-1H-1,2,4-triazoles and 1-(Diarylmethyl)-1H-imidazoles as a Novel Class of Anti-Mitotic Agent for Activity in Breast Cancer” (Pharmaceuticals, 2021).
Read-outs that look alike come from different tables or passages of the source.

How the values were obtained:
NCI 60 cell line panel = test: NCI 60 cell line screen, panel means; type: cell-based, human; conditions: for GI50 / LC50 (50% lethal concentration): Homo sapiens
RXF 393 = test: NCI 60 cell line screen (Renal Cancer); type: cell-based, human; conditions: RXF 393, single dose 10 µM
PC-3 = test: NCI 60 cell line screen (Prostate cancer); type: cell-based, human
CAKI-1 = test: NCI 60 cell line screen (Renal Cancer); type: cell-based, human
NCI-H552 = test: NCI 60 cell line screen (Non-Small Cell Lung Cancer); type: cell-based, human
UO-31 = test: NCI 60 cell line screen (Renal Cancer); type: cell-based, human
M14 = test: NCI 60 cell line screen (Melanoma); type: cell-based, human
DU-145 = test: NCI 60 cell line screen (Prostate cancer); type: cell-based, human
HL-60 (TB) = test: NCI 60 cell line screen (Leukemia); type: cell-based, human
CYP19 (aromatase) = target: T1, CYP19 (aromatase) (Homo sapiens, UniProt P11511); test: cytochrome P450 assay (DBF fluorescence); conditions: read-out: % Inhibition at 20 µg/mL CYP19
T1 sequence (P11511 1-503): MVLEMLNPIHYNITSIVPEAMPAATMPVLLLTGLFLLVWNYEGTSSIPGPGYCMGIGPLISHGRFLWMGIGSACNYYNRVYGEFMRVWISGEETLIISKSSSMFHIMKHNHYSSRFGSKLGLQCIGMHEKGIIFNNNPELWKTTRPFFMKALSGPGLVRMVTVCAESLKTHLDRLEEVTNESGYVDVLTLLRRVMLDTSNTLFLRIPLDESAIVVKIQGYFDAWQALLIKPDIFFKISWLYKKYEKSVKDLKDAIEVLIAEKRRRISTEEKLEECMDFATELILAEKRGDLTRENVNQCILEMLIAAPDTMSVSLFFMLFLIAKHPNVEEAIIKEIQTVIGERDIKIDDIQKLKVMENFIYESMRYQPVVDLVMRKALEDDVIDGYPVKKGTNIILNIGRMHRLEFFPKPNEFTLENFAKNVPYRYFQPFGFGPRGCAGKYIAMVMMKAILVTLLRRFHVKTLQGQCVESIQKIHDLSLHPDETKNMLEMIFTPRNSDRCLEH

K-562 = test: NCI 60 cell line screen (Leukemia); type: cell-based, human
HOP-92 = test: NCI 60 cell line screen (Non-Small Cell Lung Cancer); type: cell-based, human
HT29 = test: NCI 60 cell line screen (Colon Cancer); type: cell-based, human
IGROV1 = test: NCI 60 cell line screen (Ovarian Cancer); type: cell-based, human
MDA-MB-435 = test: NCI 60 cell line screen (Melanoma); type: cell-based, human
NCI-H332M = test: NCI 60 cell line screen (Non-Small Cell Lung Cancer); type: cell-based, human
SF539 = test: NCI 60 cell line screen (CNS Cancer); type: cell-based, human
UACC-257 = test: NCI 60 cell line screen (Melanoma); type: cell-based, human
OVCAR-3 = test: NCI 60 cell line screen (Ovarian Cancer); type: cell-based, human
COLO 205 = test: NCI 60 cell line screen (Colon Cancer); type: cell-based, human
RPMI-8226 = test: NCI 60 cell line screen (Leukemia); type: cell-based, human
MOLT-4 = test: NCI 60 cell line screen (Leukemia); type: cell-based, human
[1] = toxicity evaluation, alamarBlue assay; type: cell-based, human; conditions: human, MCF-10A cells
MDA-MB-468 = test: NCI 60 cell line screen (Breast Cancer); type: cell-based, human
HCT-116 = test: NCI 60 cell line screen (Colon Cancer); type: cell-based, human
MCF-7 = test: NCI 60 cell line screen (Breast Cancer); type: cell-based, human
EKVX = test: NCI 60 cell line screen (Non-Small Cell Lung Cancer); type: cell-based, human
BT-549 = test: NCI 60 cell line screen (Breast Cancer); type: cell-based, human
MALME-3M = test: NCI 60 cell line screen (Melanoma); type: cell-based, human; conditions: single dose 10 µM
SF295 = test: NCI 60 cell line screen (CNS Cancer); type: cell-based, human
786-0 = test: NCI 60 cell line screen (Renal Cancer); type: cell-based, human
A549/ATCC = test: NCI 60 cell line screen (Non-Small Cell Lung Cancer); type: cell-based, human

For `COc1ccc(C(c2cc(OC)c(OC)c(OC)c2)n2ccnc2)cc1O` (stereo not shown) [21l, 5-((1H-Imidazol-1-yl)(3,4,5-Trimethoxyphenyl)Methyl)-2-Methoxyphenol], the “Mean Growth percentage” value (NCI 60 cell line panel; 60 cell line panel, single dose 10 µM) was 23.38%, the “MID TGI (total growth inhibition)” value (NCI 60 cell line panel; 60 cell lines) was 40700 nM and the GI50 (NCI 60 cell line panel; 60 cell, CNS cancer cell lines, read-out: GI50 range) was 192 to 731 nM. For the same compound, the GI50 (NCI 60 cell line panel; 60 cell, NCI 5 dose assay, 60 cell lines, read-out: MG-MID (mean of GI50 values over all cell lines)) was 234 nM, the GI50 (NCI 60 cell line panel; 60 cell, breast cancer panel, read-out: GI50 range) was 306 to 664 nM and the LC50 (50% lethal concentration) (NCI 60 cell line panel; 60 cell, COMPARE analysis text, read-out: LC50 values (all)) was > 100000 nM. The LC50 (50% lethal concentration) (NCI 60 cell line panel; 60 cell lines, read-out: MID LC50) was > 100000 nM, the Growth percentage (RXF 393) was -5.38% and the GI50 (PC-3; Homo sapiens, PC-3, NCI 5 dose assay) was 384 nM. For the same compound, the Growth percentage (PC-3; PC-3, single dose 10 µM) was 20.69%, the Growth percentage (CAKI-1; CAKI-1, single dose 10 µM) was 41.26% and the GI50 (CAKI-1; Homo sapiens, CAKI-1, NCI 5 dose assay) was 681 nM. The GI50 (NCI-H552; Homo sapiens, 60 cell, NCI-H552, NCI 5 dose assay) was 247 nM, the Growth percentage (NCI-H552; NCI-H552, single dose 10 µM) was 12.12% and the GI50 (UO-31; Homo sapiens, UO-31, NCI 5 dose assay) was 883 nM. It also gave a Growth percentage (UO-31; UO-31, single dose 10 µM) of 61.96%, a GI50 (M14; Homo sapiens, M14, NCI 5 dose assay) of 180 nM and a Growth percentage (M14; M14, single dose 10 µM) of 0.91%. For the same compound, the Growth percentage (DU-145; DU-145, single dose 10 µM) was 12.91%, the GI50 (DU-145; Homo sapiens, DU-145, NCI 5 dose assay) was 407 nM and the GI50 (HL-60 (TB); Homo sapiens, NCI 5 dose assay) was 229 nM. For the same compound, the Growth percentage (HL-60 (TB); single dose 10 µM) was -35.94%, the inhibition at 20 µg/mL (CYP19 (aromatase)) was 74.7% and the GI50 (K-562; Homo sapiens, K562, K-562, NCI 5 dose assay) was 225 nM. It also gave a Growth percentage (K-562; K-562, single dose 10 µM) of 8.00%, a Growth percentage (HOP-92; HOP-92, single dose 10 µM) of 25.77% and a GI50 (HOP-92; Homo sapiens, HOP-92, NCI 5 dose assay) of 28600 nM. For the same compound, the Growth percentage (HT29; HT29, single dose 10 µM) was 5.94%, the GI50 (HT29; Homo sapiens, HT-29, HT29, NCI 5 dose assay) was 312 nM and the GI50 (IGROV1; Homo sapiens, IGROV-1, IGROV1, NCI 5 dose assay) was 862 nM. It also gave a Growth percentage (IGROV1; IGROV1, single dose 10 µM) of 36.42%, a GI50 (MDA-MB-435; Homo sapiens, MDA-MB-435, NCI 5 dose assay) of 119 nM and a Growth percentage (MDA-MB-435; MDA-MB-435, single dose 10 µM) of -29.47%. It also gave a GI50 (NCI-H332M; Homo sapiens, NCI 5 dose assay) of 789 nM, a Growth percentage (NCI-H332M; single dose 10 µM) of 48.23% and a GI50 (SF539; Homo sapiens, SF-539, SF539, NCI 5 dose assay) of 217 nM. The Growth percentage (SF539; SF539, single dose 10 µM) was 9.52%, the GI50 (UACC-257; Homo sapiens, UACC-257, NCI 5 dose assay) was 1440 nM and the Growth percentage (UACC-257; UACC-257, single dose 10 µM) was 37.75%. The GI50 (OVCAR-3; Homo sapiens, OVCAR-3, NCI 5 dose assay) was 264 nM, the Growth percentage (OVCAR-3; OVCAR-3, single dose 10 µM) was -9.52% and the Growth percentage (COLO 205; COLO 205, single dose 10 µM) was -9.99%. The GI50 (COLO 205; Homo sapiens, COLO 205, NCI 5 dose assay) was 361 nM, the GI50 (RPMI-8226; Homo sapiens, RPMI-8226, NCI 5 dose assay) was 385 nM and the Growth percentage (RPMI-8226; RPMI-8226, single dose 10 µM) was 18.86%. For the same compound, the GI50 (MOLT-4; Homo sapiens, MOLT-4, NCI 5 dose assay) was 565 nM, the Growth percentage (MOLT-4; MOLT-4, single dose 10 µM) was 14.01% and the viability at 48 h, 0.4 µM ([1]; 0.4 μM, 48 h) was ~100%. For the same compound, the viability at 48 h, 0.5 µM ([1]; 0.5 μM, 48 h) was ~100%, the viability at 24 h, 1 µM ([1]; 1 μM, 24 h, read-out: cell viability) was 73% and the viability at 48 h, 1 µM ([1]; 1 μM, 48 h, read-out: percentage of viable cells) was 64%. The viability at 72 h, 1 µM ([1]; 1 μM, 72 h, read-out: percentage of viable cells) was > 80%, the viability at 48 h, 10 µM ([1]; 10 μM, 48 h, read-out: percentage of viable cells) was ~30% and the GI50 (MDA-MB-468; Homo sapiens, MDA-MB-468, NCI 5 dose assay) was 316 nM. The Growth percentage (MDA-MB-468; MDA-MB-468, single dose 10 µM) was 15.64%, the Growth percentage (HCT-116; HCT-116, single dose 10 µM) was 6.88% and the GI50 (HCT-116; Homo sapiens, HCT-116, NCI 5 dose assay) was 249 nM. For the same compound, the GI50 (MCF-7; Homo sapiens, MCF7, MCF-7, NCI 5 dose assay) was 339 nM, the Growth percentage (MCF-7; MCF-7, single dose 10 µM) was 18.38% and the GI50 (EKVX; Homo sapiens, NCI 5 dose assay) was 702 nM. For the same compound, the Growth percentage (EKVX; single dose 10 µM) was 30.23%, the Growth percentage (BT-549; BT-549, single dose 10 µM) was -0.07% and the GI50 (BT-549; Homo sapiens, BT-549, NCI 5 dose assay) was 306 nM. For the same compound, the Growth percentage (MALME-3M) was 66.57%, the GI50 (SF295; Homo sapiens, SF-295, SF295, NCI 5 dose assay) was 307 nM and the Growth percentage (SF295; SF295, single dose 10 µM) was -3.02%. It also gave a Growth percentage (786-0; 786-0, single dose 10 µM) of 19.99%, a GI50 (786-0; Homo sapiens, 786-0, NCI 5 dose assay) of 369 nM and a GI50 (A549/ATCC; Homo sapiens, NCI 5 dose assay) of 836 nM. The Growth percentage (A549/ATCC; single dose 10 µM) was 12.80%.
